Patent publication EP4745135A1 (Gluetacs Therapeutics (Shanghai) Co., Ltd., priority 2023, dated 2025)

Legend:
CK1α = molecular target: T1, CK1α (Homo sapiens, UniProt P48729+Q96SW2); assay: Western blot, degradation of substrate protein in hPBMCs; assay type: cell-based
T1 construct: effects of the compounds of the present disclosure on the expression of target proteins in cells; endogenous in cells; host or cells: human PBMCs (Milecell Biotechnologies)

IKZF1 = molecular target: T2, IKZF1 (Homo sapiens, UniProt Q13422+Q96SW2); assay: as above; assay type: cell-based
T2 construct: effects of the compounds of the present disclosure on the expression of target proteins in cells; endogenous in cells; host or cells: human PBMCs (Milecell Biotechnologies)
T2 sequence (Q13422 whole entry): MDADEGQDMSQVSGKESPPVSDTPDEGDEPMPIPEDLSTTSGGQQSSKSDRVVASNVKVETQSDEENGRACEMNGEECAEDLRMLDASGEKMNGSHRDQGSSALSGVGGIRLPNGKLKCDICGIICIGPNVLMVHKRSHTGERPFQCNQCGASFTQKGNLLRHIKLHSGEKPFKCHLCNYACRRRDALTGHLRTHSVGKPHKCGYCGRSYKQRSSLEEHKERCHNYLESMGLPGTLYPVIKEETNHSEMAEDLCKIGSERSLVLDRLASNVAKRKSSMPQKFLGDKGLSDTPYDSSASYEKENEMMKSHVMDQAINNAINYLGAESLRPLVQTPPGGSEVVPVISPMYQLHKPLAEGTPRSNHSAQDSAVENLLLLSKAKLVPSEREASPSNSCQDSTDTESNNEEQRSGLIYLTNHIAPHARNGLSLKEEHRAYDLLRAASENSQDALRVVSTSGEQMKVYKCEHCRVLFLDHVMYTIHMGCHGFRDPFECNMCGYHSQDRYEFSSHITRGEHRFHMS
T2 sequence (Q96SW2 whole entry): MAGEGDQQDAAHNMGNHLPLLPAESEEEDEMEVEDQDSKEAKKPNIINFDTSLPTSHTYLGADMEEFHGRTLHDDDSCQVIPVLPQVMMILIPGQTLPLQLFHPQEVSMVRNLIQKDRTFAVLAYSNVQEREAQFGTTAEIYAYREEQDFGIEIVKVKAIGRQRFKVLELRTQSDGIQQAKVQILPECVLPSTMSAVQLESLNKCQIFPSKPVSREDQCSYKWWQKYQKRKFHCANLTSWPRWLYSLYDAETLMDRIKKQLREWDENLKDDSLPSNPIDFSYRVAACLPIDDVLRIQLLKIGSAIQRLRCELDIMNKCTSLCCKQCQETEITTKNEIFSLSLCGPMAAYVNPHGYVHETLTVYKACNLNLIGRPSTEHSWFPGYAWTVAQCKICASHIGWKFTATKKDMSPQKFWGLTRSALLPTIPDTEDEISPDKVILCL
T2 sequence (Q16531 whole entry partner): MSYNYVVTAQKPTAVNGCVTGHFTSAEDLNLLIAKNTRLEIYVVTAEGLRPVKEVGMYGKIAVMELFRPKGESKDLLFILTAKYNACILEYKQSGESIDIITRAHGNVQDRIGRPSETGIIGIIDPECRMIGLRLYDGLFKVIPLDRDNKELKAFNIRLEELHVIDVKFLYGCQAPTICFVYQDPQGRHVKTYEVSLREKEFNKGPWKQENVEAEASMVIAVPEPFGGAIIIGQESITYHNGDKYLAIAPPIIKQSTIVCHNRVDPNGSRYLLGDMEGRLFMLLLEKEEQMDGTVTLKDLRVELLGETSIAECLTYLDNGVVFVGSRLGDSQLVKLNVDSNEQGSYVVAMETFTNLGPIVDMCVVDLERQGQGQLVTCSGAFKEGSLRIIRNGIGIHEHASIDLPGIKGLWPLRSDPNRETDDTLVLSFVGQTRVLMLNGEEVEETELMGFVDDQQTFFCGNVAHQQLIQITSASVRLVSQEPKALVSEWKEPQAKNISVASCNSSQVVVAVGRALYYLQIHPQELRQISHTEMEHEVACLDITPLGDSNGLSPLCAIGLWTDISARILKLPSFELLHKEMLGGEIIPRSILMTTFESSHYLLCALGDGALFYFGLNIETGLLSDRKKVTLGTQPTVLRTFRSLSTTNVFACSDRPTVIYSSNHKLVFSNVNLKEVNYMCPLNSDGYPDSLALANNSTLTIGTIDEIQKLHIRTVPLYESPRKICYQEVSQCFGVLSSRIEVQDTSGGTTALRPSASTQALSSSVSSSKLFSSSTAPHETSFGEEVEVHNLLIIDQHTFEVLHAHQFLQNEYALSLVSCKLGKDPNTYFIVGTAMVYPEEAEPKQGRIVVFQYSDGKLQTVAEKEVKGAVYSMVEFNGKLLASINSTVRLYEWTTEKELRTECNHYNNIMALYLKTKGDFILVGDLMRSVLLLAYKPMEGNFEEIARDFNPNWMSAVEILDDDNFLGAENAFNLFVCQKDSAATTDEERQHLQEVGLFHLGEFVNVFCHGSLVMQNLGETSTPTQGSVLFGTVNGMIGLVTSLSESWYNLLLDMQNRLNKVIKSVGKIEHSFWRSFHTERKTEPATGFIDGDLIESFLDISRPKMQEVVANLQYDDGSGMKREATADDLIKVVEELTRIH

IKZF2 = molecular target: T3, IKZF2 (Homo sapiens, UniProt Q96SW2+Q9UKS7); assay: as above; assay type: cell-based
T3 construct: effects of the compounds of the present disclosure on the expression of target proteins in cells; endogenous in cells; host or cells: human PBMCs (Milecell Biotechnologies)
T3 sequence (Q9UKS7 whole entry): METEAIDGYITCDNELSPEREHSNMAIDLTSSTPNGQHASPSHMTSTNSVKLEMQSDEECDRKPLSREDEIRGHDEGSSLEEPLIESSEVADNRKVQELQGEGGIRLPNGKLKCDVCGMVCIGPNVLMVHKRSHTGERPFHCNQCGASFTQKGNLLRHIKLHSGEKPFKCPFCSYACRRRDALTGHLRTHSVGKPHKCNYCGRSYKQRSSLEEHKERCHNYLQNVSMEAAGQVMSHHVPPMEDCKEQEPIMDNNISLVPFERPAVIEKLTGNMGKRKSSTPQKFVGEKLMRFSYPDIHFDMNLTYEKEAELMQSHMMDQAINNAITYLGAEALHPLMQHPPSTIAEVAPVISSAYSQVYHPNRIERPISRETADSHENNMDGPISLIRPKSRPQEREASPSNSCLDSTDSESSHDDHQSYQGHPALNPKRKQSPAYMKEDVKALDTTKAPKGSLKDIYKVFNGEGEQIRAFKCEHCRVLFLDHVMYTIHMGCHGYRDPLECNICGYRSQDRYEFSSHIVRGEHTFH
T3 sequence (Q96SW2 whole entry): as the sequence (Q96SW2 whole entry) above
T3 sequence (Q16531 whole entry partner): as the sequence (Q16531 whole entry partner) above

IKZF3 = molecular target: T4, IKZF3 (Homo sapiens, UniProt Q96SW2+Q9UKT9); assay: as above; assay type: cell-based
T4 construct: effects of the compounds of the present disclosure on the expression of target proteins in cells; endogenous in cells; host or cells: human PBMCs (Milecell Biotechnologies)
T4 sequence (Q9UKT9 whole entry): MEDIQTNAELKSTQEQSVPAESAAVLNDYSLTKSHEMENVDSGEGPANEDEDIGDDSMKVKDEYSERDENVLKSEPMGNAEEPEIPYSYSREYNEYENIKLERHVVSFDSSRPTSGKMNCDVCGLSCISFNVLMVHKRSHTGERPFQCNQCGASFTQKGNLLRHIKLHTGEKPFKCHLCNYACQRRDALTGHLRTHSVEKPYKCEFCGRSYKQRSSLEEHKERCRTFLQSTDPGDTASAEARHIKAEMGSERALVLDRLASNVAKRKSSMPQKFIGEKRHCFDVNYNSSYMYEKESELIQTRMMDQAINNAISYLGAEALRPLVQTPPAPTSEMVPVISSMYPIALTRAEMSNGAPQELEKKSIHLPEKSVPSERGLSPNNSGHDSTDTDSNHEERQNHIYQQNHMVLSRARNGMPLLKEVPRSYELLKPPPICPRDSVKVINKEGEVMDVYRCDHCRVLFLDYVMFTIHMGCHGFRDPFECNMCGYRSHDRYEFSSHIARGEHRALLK
T4 sequence (Q96SW2 whole entry): as the sequence (Q96SW2 whole entry) above
T4 sequence (Q16531 whole entry partner): as the sequence (Q16531 whole entry partner) above

WEE1 = molecular target: T5, WEE1 (Homo sapiens, UniProt P30291+Q96SW2); assay: as above; assay type: cell-based
T5 construct: effects of the compounds of the present disclosure on the expression of target proteins in cells; endogenous in cells; host or cells: human PBMCs (Milecell Biotechnologies)
T5 sequence (P30291 whole entry): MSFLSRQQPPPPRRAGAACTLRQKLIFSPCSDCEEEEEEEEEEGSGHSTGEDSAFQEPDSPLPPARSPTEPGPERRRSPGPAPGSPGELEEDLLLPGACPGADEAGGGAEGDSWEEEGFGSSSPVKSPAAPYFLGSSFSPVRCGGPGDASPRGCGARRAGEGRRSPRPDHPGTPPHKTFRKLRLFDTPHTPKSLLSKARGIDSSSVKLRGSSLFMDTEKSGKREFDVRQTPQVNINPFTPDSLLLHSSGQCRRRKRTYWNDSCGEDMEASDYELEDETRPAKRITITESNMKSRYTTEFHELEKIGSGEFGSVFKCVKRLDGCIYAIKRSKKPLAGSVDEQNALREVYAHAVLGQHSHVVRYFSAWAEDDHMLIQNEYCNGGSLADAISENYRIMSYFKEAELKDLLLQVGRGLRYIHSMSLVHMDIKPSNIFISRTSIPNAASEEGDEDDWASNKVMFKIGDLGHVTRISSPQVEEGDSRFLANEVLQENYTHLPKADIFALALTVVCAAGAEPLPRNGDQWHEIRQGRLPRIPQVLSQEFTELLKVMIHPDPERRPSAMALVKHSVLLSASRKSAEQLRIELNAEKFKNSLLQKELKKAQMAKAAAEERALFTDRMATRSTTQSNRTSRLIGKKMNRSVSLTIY
T5 sequence (Q96SW2 whole entry): as the sequence (Q96SW2 whole entry) above
T5 sequence (Q16531 whole entry partner): as the sequence (Q16531 whole entry partner) above

GSPT1 = assay: as above; assay type: cell-based, Human
[1] = molecular target: T6, human Cereblon WT GST-tagged protein (Homo sapiens, UniProt Q96SW2); assay: CRBN-binding affinity, HTRF (CEREBLON BINDING kit); settings: for inhibition at 0.5 µM: read-out: Inhibition Rate at 0.5 µM (%); for inhibition at 2 µM: read-out: Inhibition Rate at 2 µM (%)
T6 construct: purchased CISBIO 64BDCRBNPEH
T6 sequence (Q96SW2 whole entry): as the sequence (Q96SW2 whole entry) above

[2] = system: Human multiple myeloma cell (MM.1S); assay: Tumor cell proliferation inhibition (CellTiter-Meiluncell luminescent cell viability assay); settings: for inhibition at 0.01 µM / inhibition at 0.5 µM: Homo sapiens, MM1.S, 96 h; for inhibition at 0.01 µM: read-out: Inhibition Rate at 10 nM (%); for inhibition at 0.5 µM: read-out: Inhibition Rate at 500 nM (%)
Method: (§1) The tumor cells used herein were cultured in a cell culture medium listed in table 2 at 37°C in an incubator with 5% CO2. Prior to experimentation, all cell lines used were correctly identified by STR profiling, and tested negative for mycoplasma contamination using a mycoplasma detection kit through routine screenings.
(§2) The IC50 values of the compounds of the present disclosure (including the compounds in Table 1 and Examples) were determined using the CellTiter-Meiluncell Luminescent Cell Viability Assay Kit from Dalian Meilun Biotech Co., Ltd. The detailed procedure is as follows: Tumor cells were seeded in 96-well cell culture plates at the densities specified in Table 3. On the following day, the test compounds of the present disclosure were subjected to serial dilution. The dilution can be performed according to one of the following two methods: • (1) The first dilution method: The test compounds of the present disclosure (including the compounds in Table 1 and Examples) were subjected to 5-fold serial dilutions starting from a highest concentration of 2000 µM, resulting in a total of 9 concentrations from high to low (2000, 400, 80, 16, 3.2, 0.64, 0.128, 0.0256, 0.00512 µM). Subsequently, 0.5 µL of the test compound dilution was transferred into the 96-well plate containing the cells, with each well containing 100 µL of cell culture medium. […] Into the 96-well plate, the diluted test compounds and corresponding detection reagents were added, resulting in final test compound concentrations of 500 nM and 10 nM, respectively. The experimental procedure is described below using the diluted 2 µM test compound as an example.
(§3) 0.5 µL of the aforementioned diluted compound of the present disclosure (including the compounds in Table 1 and Examples) was added to the seeded cells in 100 µL of medium, yielding a final test compound concentration of 10 nM. After the cells were treated with the compounds of the present disclosure for a specified period, the cell viability assay reagent was added to the culture medium according to the kit's instructions to determine cell viability. […] All controls were treated using the same procedure as the compounds of the present disclosure. The growth inhibition curves for the compounds of the present disclosure were plotted using Prism GraphPad software, and the IC50 values were calculated therefrom.

[3] = system: Human acute T lymphocytic leukemia cell (Molt4); assay: as above; settings: MOLT-4, 96 h; for inhibition at 0.01 µM: read-out: Inhibition Rate at 10 nM (%); for inhibition at 0.5 µM: read-out: Inhibition Rate at 500 nM (%)
Method: as §1, §2, §3

[4] = system: Human myeloid monocytic leukemia cell (MV-4-11); assay: as above; settings: MV4-11, 96 h; for inhibition at 0.01 µM: read-out: Inhibition Rate at 10 nM (%); for inhibition at 0.5 µM: read-out: Inhibition Rate at 500 nM (%)
[5] = 24 hours treatment, compounds at 50 nM and 500 nM (concentration behind the class not stated)
[6] = Western blot, 24 hours of compound treatment, compounds tested at 50 nM and 500 nM (concentration for the table not stated)

T1 sequence (P48729 whole entry): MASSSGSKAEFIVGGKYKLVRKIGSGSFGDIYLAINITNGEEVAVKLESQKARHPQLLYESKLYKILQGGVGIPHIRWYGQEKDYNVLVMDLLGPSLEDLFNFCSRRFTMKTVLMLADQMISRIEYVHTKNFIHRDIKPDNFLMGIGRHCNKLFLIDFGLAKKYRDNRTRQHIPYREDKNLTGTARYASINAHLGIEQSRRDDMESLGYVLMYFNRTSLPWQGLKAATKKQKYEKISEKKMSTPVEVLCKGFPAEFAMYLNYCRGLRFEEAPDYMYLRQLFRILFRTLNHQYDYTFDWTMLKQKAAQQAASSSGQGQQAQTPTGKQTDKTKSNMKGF
T1 sequence (Q96SW2 whole entry): as the sequence (Q96SW2 whole entry) above
T1 sequence (Q16531 whole entry partner): as the sequence (Q16531 whole entry partner) above

| SMILES | CK1α substrate protein remaining % (CK1α; [5]) | IKZF 1 substrate protein remaining % (IKZF1; [5]) | IKZF2 substrate protein remaining % (IKZF2; [5]) | IKZF3 substrate protein remaining % (IKZF3; [5]) | Wee1 substrate protein remaining % (WEE1; [5]) | GSPT1 substrate protein remaining % (GSPT1; [5]) | inhibition at 0.5 µM [1] [%] | inhibition at 2 µM [1] [%] | inhibition at 0.01 µM [2] [%] | inhibition at 0.01 µM [3] [%] | inhibition at 0.5 µM [3] [%] | inhibition at 0.01 µM [4] [%] | inhibition at 0.5 µM [4] [%] | CK1α substrate protein remaining % (CK1α; [6]) | IKZF 1 substrate protein remaining % (IKZF1; [6]) | IKZF2 substrate protein remaining % (IKZF2; [6]) | IKZF3 substrate protein remaining % (IKZF3; [6]) | Wee1 substrate protein remaining % (WEE1; [6]) | GSPT1 substrate protein remaining % (GSPT1; [6]) | inhibition at 0.5 µM [2] [%] | also measured |
| --- | --- | --- | --- | --- | --- | --- | --- | --- | --- | --- | --- | --- | --- | --- | --- | --- | --- | --- | --- | --- | --- |
| O=C1CCC(N2Cc3cc(CN4CCC(c5c[nH]c6ncccc56)CC4)ccc3C2=S)C(=O)N1 (stereo not drawn) [GT-09268, 3-(5-((4-(1H-pyrrolo[2,3-b]pyridin-3-yl)piperidin-1-yl)methyl)-1-thioxoisoindolin-2-yl)piperidine-2,6-dione] | B (80%< substrate protein remaining %≤ 100%) | B (80%< substrate protein remaining %≤ 100%) | B (80%< substrate protein remaining %≤ 100%) | B (80%< substrate protein remaining %≤ 100%) | B (80%< substrate protein remaining %≤ 100%) | A (0% ≤ substrate protein remaining % ≤ 80%) | 53 to 60 | 80 to 100 | 30 to 40 | 40 to 50 | 40 to 50 | 5 to 10 | 60 to 80 |  |  |  |  |  |  |  | Inhibition Rate at 500 nM (%) ([2]; MM.1S, 500 nM, 96 hours): la7 |
| Cc1ccc(Cl)cc1N1CCN(Cc2ccc3c(c2)CN(C2CCC(=O)NC2=O)C3=S)CC1 (stereo not drawn) [GT-08615, 3-(5-((4-(5-chloro-2-methylphenyl)piperazin-1-yl)methyl)-1-thioxoisoindolin-2-yl)piperidine-2,6-dione] |  |  |  |  |  |  | 30 to 40 | 60 to 80 | 10 to 20 | 5 to 10 | 50 to 60 |  |  | B (80%< substrate protein remaining %≤ 100%) | B (80%< substrate protein remaining %≤ 100%) | B (80%< substrate protein remaining %≤ 100%) | B (80%< substrate protein remaining %≤ 100%) | B (80%< substrate protein remaining %≤ 100%) | A (0% ≤ substrate protein remaining % ≤ 80%) | 40 to 50 |  |
| O=C1CCC(N2Cc3cc(CN4CCN(c5nccc(Cl)c5Br)CC4)ccc3C2=S)C(=O)N1 (stereo not drawn) [GT-09245, 3-(5-((4-(3-bromo-4-chloropyridin-2-yl)piperazin-1-yl)methyl)-1-thioxoisoindolin-2-yl)piperidine-2,6-dione] | B (80%< substrate protein remaining %≤ 100%) | A (0% ≤ substrate protein remaining % ≤ 80%) | A (0% ≤ substrate protein remaining % ≤ 80%) | B (80%< substrate protein remaining %≤ 100%) | B (80%< substrate protein remaining %≤ 100%) | A (0% ≤ substrate protein remaining % ≤ 80%) | 60 to 80 | 80 to 100 | 40 to 50 | 10 to 20 | 50 to 60 | 60 to 80 | 80 to 100 |  |  |  |  |  |  | 70 to 80 |  |
| Cc1ccc(N2CCN(Cc3ccc4c(c3)CN(C3CCC(=O)NC3=O)C4=S)CC2)cc1 (stereo not drawn) [GT-08603, 3-(1-thioxo-5-((4-(p-tolyl)piperazin-1-yl)methyl)isoindolin-2-yl)piperidine-2,6-dione] |  |  |  |  |  |  | 53 to 60 | 80 to 100 | 30 to 40 | 0 to 5 | 40 to 50 | 40 to 60 | 80 to 100 | B (80%< substrate protein remaining %≤ 100%) | B (80%< substrate protein remaining %≤ 100%) | B (80%< substrate protein remaining %≤ 100%) | B (80%< substrate protein remaining %≤ 100%) | B (80%< substrate protein remaining %≤ 100%) | A (0% ≤ substrate protein remaining % ≤ 80%) | 50 to 60 |  |
| COc1ccccc1N1CCN(Cc2ccc3c(c2)CN(C2CCC(=O)NC2=O)C3=S)CC1 (stereo not drawn) [GT-08236, 3-(5-((4-(2-methoxyphenyl)piperazin-1-yl)methyl)-1-thioxoisoindolin-2-yl)piperidine-2,6-dione] |  |  |  |  |  |  | 40 to 53 | 80 to 100 |  | 10 to 20 | 40 to 50 | 10 to 18 | 60 to 80 | B (80%< substrate protein remaining %≤ 100%) | B (80%< substrate protein remaining %≤ 100%) | B (80%< substrate protein remaining %≤ 100%) | B (80%< substrate protein remaining %≤ 100%) | B (80%< substrate protein remaining %≤ 100%) | A (0% ≤ substrate protein remaining % ≤ 80%) |  |  |
| O=C1CCC(N2Cc3c(CN4CCN(Cc5ccc(-c6ccc(Cl)cc6)cc5)CC4)cccc3C2=S)C(=O)N1 (stereo not drawn) [GT-08960, 3-(4-((4-((4'-chloro-[1,1'-biphenyl]-4-yl)methyl)piperazin-1-yl)methyl)-1-thioxoisoindolin-2-yl)piperidine-2,6-dione] |  |  |  |  |  |  | 53 to 60 | 80 to 100 |  | 20 to 30 | 40 to 50 |  |  |  |  |  |  |  |  |  |  |
| O=C1CCC(N2Cc3cc(CN4CCN(c5ccc(Cl)c(Cl)c5)CC4)ccc3C2=S)C(=O)N1 (stereo not drawn) [GT-08612, 3-(5-((4-(3,4-dichlorophenyl)piperazin-1-yl)methyl)-1-thioxoisoindolin-2-yl)piperidine-2,6-dione] |  |  |  |  |  |  | 30 to 40 | 60 to 80 |  | 10 to 20 | 50 to 60 |  |  | B (80%< substrate protein remaining %≤ 100%) | B (80%< substrate protein remaining %≤ 100%) | B (80%< substrate protein remaining %≤ 100%) | B (80%< substrate protein remaining %≤ 100%) | B (80%< substrate protein remaining %≤ 100%) | A (0% ≤ substrate protein remaining % ≤ 80%) |  |  |
| Cc1cc(N2CCN(Cc3ccc4c(c3)CN(C3CCC(=O)NC3=O)C4=S)CC2)cs1 (stereo not drawn) [GT-08170, 3-(5-((4-(5-methylthiophen-3-yl)piperazin-1-yl)methyl)-1-thioxoisoindolin-2-yl)piperidine-2,6-dione] | A (0% ≤ substrate protein remaining % ≤ 80%) | B (80%< substrate protein remaining %≤ 100%) | A (0% ≤ substrate protein remaining % ≤ 80%) | A (0% ≤ substrate protein remaining % ≤ 80%) | B (80%< substrate protein remaining %≤ 100%) | A (0% ≤ substrate protein remaining % ≤ 80%) | 60 to 80 | 80 to 100 |  | 5 to 10 | 60 to 70 | 25 to 30 | 60 to 80 |  |  |  |  |  |  |  |  |
| O=C1CCC(N2Cc3cc(CN4CCN(c5ccnc(Cl)c5Br)CC4)ccc3C2=S)C(=O)N1 (stereo not drawn) [GT-09240, 3-(5-((4-(3-bromo-2-chloropyridin-4-yl)piperazin-1-yl)methyl)-1-thioxoisoindolin-2-yl)piperidine-2,6-dione] | B (80%< substrate protein remaining %≤ 100%) | A (0% ≤ substrate protein remaining % ≤ 80%) | B (80%< substrate protein remaining %≤ 100%) | B (80%< substrate protein remaining %≤ 100%) | B (80%< substrate protein remaining %≤ 100%) | A (0% ≤ substrate protein remaining % ≤ 80%) | 80 to 100 | 80 to 100 |  | 50 to 60 | 30 to 40 |  |  |  |  |  |  |  |  |  |  |
| O=C1CCC(N2Cc3c(CN4C[C@@H]5C[C@H]4CN5c4cccc(Cl)c4Cl)cccc3C2=S)C(=O)N1 (stereo partly drawn) [GT-08468, 3-(4-(((1S,4S)-5-(2,3-dichlorophenyl)-2,5-diazabicyclo[2.2.1]heptan-2-yl)methyl)-1-thioxoisoindolin-2-yl)piperidine-2,6-dione] |  |  |  |  |  |  | 40 to 53 | 80 to 100 | 40 to 50 |  |  | 40 to 60 | 40 to 60 | B (80%< substrate protein remaining %≤ 100%) | B (80%< substrate protein remaining %≤ 100%) | B (80%< substrate protein remaining %≤ 100%) | B (80%< substrate protein remaining %≤ 100%) | B (80%< substrate protein remaining %≤ 100%) | A (0% ≤ substrate protein remaining % ≤ 80%) | 50 to 60 |  |
